Laboratory results taken from patent publication US20220386606A1, “SPECIFICALLY SUBSTITUTED 3-PHENYL-5-SPIROCYCLOPENTYL-3-PYRROLIN-2-ONES AND THEIR USE AS HERBICIDES” (Bayer Aktiengesellschaft, priority 2019, published 2022).

Experiments:
[1] = test system: ALOMY; test: Pre-emergence herbicidal action against ALOMY; format: in vivo, Alopecurus myosuroides; conditions: 320 g/ha, scored visually after 3 weeks vs untreated controls
Method in brief: (§1)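 Sandy loam, wood-fiber pots, seeds covered with soil. Spray onto soil surface: aqueous WP/EC, 600 to 800 L/ha, 0.2% wetting agent. Greenhouse 3 weeks; visual % score vs untreated controls.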

[2] = test system: AVEFA; test: Pre-emergence herbicidal action against AVEFA; format: in vivo, Avena fatua; conditions: 320 g/ha, scored visually after 3 weeks vs untreated controls
Method in brief: as §1

[3] = test system: DIGSA; test: Pre-emergence herbicidal action against DIGSA; format: in vivo, Digitaria sanguinalis; conditions: 320 g/ha, scored visually after 3 weeks vs untreated controls
Method in brief: as §1

[4] = test system: ECHCG; test: Pre-emergence herbicidal action against ECHCG; format: in vivo, Echinochloa crus-galli; conditions: 320 g/ha, scored visually after 3 weeks vs untreated controls
Method in brief: as §1

[5] = test system: LOLRI; test: Pre-emergence herbicidal action against LOLRI (Table 8, titled post-emergence at 320 g/ha); format: in vivo, Lolium rigidum; conditions: table stands in the pre-emergence section
Method in brief: as §1

[6] = test system: SETVI; test: Pre-emergence herbicidal action against SETVI; format: in vivo, Setaria viridis; conditions: 320 g/ha, scored visually after 3 weeks vs untreated controls
Method in brief: as §1

[7] = test system: VIOTR; test: Pre-emergence herbicidal action against VIOTR; format: in vivo, Viola tricolor; conditions: 320 g/ha
Method in brief: as §1

[8] = test system: VERPE; test: Pre-emergence herbicidal action against VERPE; format: in vivo, Veronica persica; conditions: 320 g/ha
Method in brief: as §1

[9] = test system: ALOMY; test: Post-emergence herbicidal action against ALOMY; format: in vivo, Alopecurus myosuroides; conditions: 80 g/ha, visual assessment after about 3 weeks
Method in brief: (§2)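 Weeds were grown in sandy loam in a greenhouse and treated at the one-leaf stage, 2 to 3 weeks after sowing. WP or EC formulations were sprayed onto green parts at 600 to 800 l/ha water with 0.2% wetting agent. Visual % action versus untreated controls was scored after about 3 weeks.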

[10] = test system: DIGSA; test: Post-emergence herbicidal action against DIGSA; format: in vivo, Digitaria sanguinalis; conditions: 80 g/ha, visual assessment about 3 weeks after treatment vs untreated controls
Method in brief: as §2

[11] = test system: ECHCG; test: Post-emergence herbicidal action against ECHCG; format: in vivo, Echinochloa crus-galli; conditions: 80 g/ha, visual assessment about 3 weeks after treatment vs untreated controls
Method in brief: as §2

[12] = test system: LOLRI; test: Post-emergence herbicidal action against LOLRI; format: in vivo, Lolium rigidum; conditions: 80 g/ha, visual assessment about 3 weeks after treatment vs untreated controls
Method in brief: as §2

[13] = test system: SETVI; test: Post-emergence herbicidal action against SETVI; format: in vivo, Setaria viridis; conditions: 80 g/ha, visual assessment about 3 weeks after treatment vs untreated controls
Method in brief: as §2

[14] = test system: POLCO; test: Post-emergence herbicidal action against POLCO; format: in vivo, Polygonum convolvulus; conditions: 80 g/ha, visual assessment about 3 weeks after treatment vs untreated controls
Experimental: (§3) Seeds of monocotyledonous and dicotyledonous weed and crop plants are laid out in sandy loam soil in wood-fiber pots, covered with soil and cultivated in a greenhouse under good growth conditions. 2 to 3 weeks after sowing, the test plants are treated at the one-leaf stage. The compounds of the invention, formulated in the form of wettable powders (WP) or as emulsion concentrates (EC), are then sprayed onto the green parts of the plants as aqueous suspension or emulsion at a water application rate equating to 600 to 800 l/ha with addition of 0.2% wetting agent. After the test plants have been left to stand in the greenhouse under optimal growth conditions for about 3 weeks, the action of the preparations is assessed visually in comparison to untreated controls (herbicidal action in percent (%): 100% activity=the plants have died, 0% activity=like control plants).

[15] = test system: VERPE; test: Post-emergence herbicidal action against VERPE; format: in vivo, Veronica persica; conditions: 80 g/ha, visual assessment about 3 weeks after treatment vs untreated controls
Experimental: as §3

[16] = test system: AMARE; test: Pre-emergence herbicidal action against AMARE; format: in vivo, Amaranthus retroflexus; conditions: 320 g/ha
Method in brief: as §1

[17] = test system: MATIN; test: Pre-emergence herbicidal action against MATIN; format: in vivo; conditions: 320 g/ha
Method in brief: as §1

[18] = test system: PHBPU; test: Pre-emergence herbicidal action against PHBPU; format: in vivo; conditions: scored visually after 3 weeks, 100% = plants have died, 0% = like control plants
From the text: Seeds of monocotyledonous and dicotyledonous weed plants and crop plants are laid out in sandy loam soil in wood-fiber pots and covered with soil. The compounds of the invention, formulated in the form of wettable powders (WP) or as emulsion concentrates (EC), are then applied to the surface of the covering soil as aqueous suspension or emulsion at a water application rate equating to 600 to 800 L/ha with addition of 0.2% wetting agent.
After the treatment, the pots are placed in a greenhouse and kept under good growth conditions for the trial plants. The damage to the test plants is scored visually after a test period of 3 weeks by comparison with untreated controls (herbicidal activity in percent (%): 100% activity=the plants have died, 0% activity=like control plants).

[19] = test system: POLCO; test: Pre-emergence herbicidal action against POLCO; format: in vivo, Polygonum convolvulus; conditions: 320 g/ha
Method in brief: as §1

[20] = test system: ABUTH; test: Post-emergence herbicidal action against ABUTH; format: in vivo, Abutylon threophrasti; conditions: 80 g/ha, visual assessment about 3 weeks after treatment vs untreated controls
Method in brief: as §2

[21] = test system: ABUTH; test: Pre-emergence herbicidal action against ABUTH; format: in vivo, Abutylon threophrasti; conditions: 320 g/ha
Method in brief: as §1

[22] = test system: PHBPU; test: Post-emergence herbicidal action against PHBPU; format: in vivo; conditions: assessed visually after about 3 weeks, 100% = plants have died, 0% = like control plants
Experimental: as §3

[23] = test system: AVEFA; test: Post-emergence herbicidal action against AVEFA; format: in vivo, Avena fatua; conditions: 80 g/ha, visual assessment after about 3 weeks
Method in brief: as §2

[24] = test system: VIOTR; test: Post-emergence herbicidal action against VIOTR; format: in vivo, Viola tricolor; conditions: 80 g/ha, visual assessment about 3 weeks after treatment vs untreated controls
Method in brief: as §2

[25] = test system: HORMU; test: Post-emergence herbicidal action against HORMU; format: in vivo, Hordeum murinum; conditions: 80 g/ha, visual assessment about 3 weeks after treatment vs untreated controls
Method in brief: as §2

CC#Cc1cc(Br)c(C2=C(O)[C@]3(CC[C@H](COCC)C3)NC2=O)c(OC)c1 (stereo in doubt) [Example I-11, 3-(2-Bromo-6-methoxy-4-prop-1-ynylphenyl)-8-(ethoxymethyl)-4-hydroxy-1-azaspiro[4.4]non-3-en-2-one]
Pre-emergence action against ALOMY in % [1]: 100% | Pre-emergence action against AVEFA in % [2]: 100% | Pre-emergence action against DIGSA in % [3]: 100% | Pre-emergence action against ECHCG in % [4]: 100% | Pre-emergence herbicidal action against LOLRI in % [5]: 100% | Pre-emergence action against SETVI in % [6]: 100% | Pre-emergence action against VIOTR in % [7]: 90% | Pre-emergence action against VERPE in % [8]: 100% | Post-emergence action against ALOMY in % [9]: 100% | Post-emergence action against DIGSA in % [10]: 100% | Post-emergence action against ECHCG in % [11]: 100% | Post-emergence action against LOLRI in % [12]: 100% | Post-emergence action against SETVI in % [13]: 100% | Post-emergence action against POLCO in % [14]: 80% | Post-emergence action against VERPE in % [15]: 80%

CC#Cc1cc(Br)c(C2=C(OC(=O)OCC)[C@]3(CC[C@H](COCC)C3)NC2=O)c(OC)c1 (stereo in doubt) [Example P-13, [3-(2-Bromo-6-methoxy-4-prop-1-ynyl-phenyl)-8-(ethoxymethyl)-2-oxo-1-azaspiro[4.4]non-3-en-4-yl] ethyl carbonate]
Pre-emergence action against ALOMY in % [1]: 100% | Pre-emergence action against AVEFA in % [2]: 100% | Pre-emergence action against DIGSA in % [3]: 100% | Pre-emergence action against ECHCG in % [4]: 100% | Pre-emergence herbicidal action against LOLRI in % [5]: 100% | Pre-emergence action against SETVI in % [6]: 100% | Pre-emergence action against AMARE in % [16]: 90% | Pre-emergence action against MATIN in % [17]: 80% | Pre-emergence action at 320 g/ha against PHBPU in % [18]: 100% | Pre-emergence action against POLCO in % [19]: 80% | Pre-emergence action against VIOTR in % [7]: 100% | Post-emergence action against ALOMY in % [9]: 100% | Post-emergence action against DIGSA in % [10]: 100% | Post-emergence action against ECHCG in % [11]: 100% | Post-emergence action against LOLRI in % [12]: 100% | Post-emergence action against SETVI in % [13]: 100% | Post-emergence action against ABUTH in % [20]: 80%

CC#Cc1cc(Br)c(C2=C(O)C3(CCC(COCC)C3)NC2=O)c(OC)c1 (stereo not shown) [Example I-05]
Pre-emergence action against ALOMY in % [1]: 100% | Pre-emergence action against AVEFA in % [2]: 100% | Pre-emergence action against DIGSA in % [3]: 100% | Pre-emergence action against ECHCG in % [4]: 100% | Pre-emergence herbicidal action against LOLRI in % [5]: 100% | Pre-emergence action against SETVI in % [6]: 100% | Pre-emergence action against ABUTH in % [21]: 80% | Pre-emergence action against POLCO in % [19]: 80% | Pre-emergence action against VIOTR in % [7]: 90% | Post-emergence action against ALOMY in % [9]: 100% | Post-emergence action against DIGSA in % [10]: 100% | Post-emergence action against ECHCG in % [11]: 100% | Post-emergence action against LOLRI in % [12]: 100% | Post-emergence action against SETVI in % [13]: 100% | Post-emergence action against ABUTH in % [20]: 80% | Post-emergence action at 80 g/ha against PHBPU in % [22]: 80% | Post-emergence action against POLCO in % [14]: 100%

CC#Cc1cc(C)c(C2=C(OC(=O)C(C)C)C3(CCC(COC)C3)NC2=O)c(Cl)c1 (stereo not shown) [Example P-16]
Post-emergence action against ALOMY in % [9]: 100% | Post-emergence action against AVEFA in % [23]: 100% | Post-emergence action against DIGSA in % [10]: 100% | Post-emergence action against ECHCG in % [11]: 100% | Post-emergence action against LOLRI in % [12]: 100% | Post-emergence action against SETVI in % [13]: 100% | Post-emergence action against ABUTH in % [20]: 80% | Post-emergence action against POLCO in % [14]: 80% | Post-emergence action against VIOTR in % [24]: 80% | Post-emergence action against HORMU in % [25]: 100%

CC#Cc1cc(C)c(C2=C(OC(=O)OCC)C3(CCC(COC)C3)NC2=O)c(F)c1 (stereo not shown) [Example P-51]
Pre-emergence action against ALOMY in % [1]: 100% | Pre-emergence action against AVEFA in % [2]: 80% | Pre-emergence action against DIGSA in % [3]: 100% | Pre-emergence action against ECHCG in % [4]: 100% | Pre-emergence herbicidal action against LOLRI in % [5]: 100% | Pre-emergence action against SETVI in % [6]: 100% | Pre-emergence action against ABUTH in % [21]: 80% | Pre-emergence action against AMARE in % [16]: 90% | Pre-emergence action against POLCO in % [19]: 90% | Pre-emergence action against VIOTR in % [7]: 100% | Post-emergence action against ALOMY in % [9]: 100% | Post-emergence action against AVEFA in % [23]: 100% | Post-emergence action against DIGSA in % [10]: 100% | Post-emergence action against ECHCG in % [11]: 100% | Post-emergence action against LOLRI in % [12]: 100% | Post-emergence action against ABUTH in % [20]: 80% | Post-emergence action against POLCO in % [14]: 80%
